Test results from patent publication US20260022122A1 (Checkmate Therapeutics Inc., priority 2022, published 2026).

Molecular target: NamPT (Homo sapiens (Human), UniProt P43490)
Assay: Measurement of NamPT inhibitory ability IC50 (NamPT colorimetric assay kit, Abcam ab221819)
Format: biochemical
Conditions: NamPT recombinant protein, WST-1 absorbance at 450 nm; class key in μM
Protocol: To test the effect of the compound prepared in each Example on the substrate decomposition rate (Vmax/min) mediated by NamPT enzyme, IC50 was calculated. In this experiment, the NamPT colorimetric assay kit (ab221819) produced by Abcam was used, and Graph prism software was used for IC50 calculation. PRPP, ATP, NMNAT1, NamPT recombinant proteins, and various concentrations of the compound of each Example (half-log step dilution from 100 μM) were added to nicotinamide to synthesize nicotinamide adenine dinucleotide (NAD) from the nicotinamide, and a total of 60 μL of the reaction solution was reacted at room temperature for 1 hour. WST-1 formazan converted by NAD generated by adding WST-1 was measured. The result of the reaction was obtained by the following formula by measuring absorbance using EnVision2105 (PerkinElmer) at 450 nm for 60 minutes at 2-minute intervals.
In Mathematical Formula 1, T1 and T2 are arbitrary times, and A1 and A2 represent the absorbance measured at T1 and T2 at 450 nm, respectively.
The results of measuring the NamPT inhibition activity of the compound of each Example obtained through the above experiment are shown in Table 1 in the unit of IC50 (nM), and the result values are expressed as follows.

NamPT, sequence (P43490 whole entry): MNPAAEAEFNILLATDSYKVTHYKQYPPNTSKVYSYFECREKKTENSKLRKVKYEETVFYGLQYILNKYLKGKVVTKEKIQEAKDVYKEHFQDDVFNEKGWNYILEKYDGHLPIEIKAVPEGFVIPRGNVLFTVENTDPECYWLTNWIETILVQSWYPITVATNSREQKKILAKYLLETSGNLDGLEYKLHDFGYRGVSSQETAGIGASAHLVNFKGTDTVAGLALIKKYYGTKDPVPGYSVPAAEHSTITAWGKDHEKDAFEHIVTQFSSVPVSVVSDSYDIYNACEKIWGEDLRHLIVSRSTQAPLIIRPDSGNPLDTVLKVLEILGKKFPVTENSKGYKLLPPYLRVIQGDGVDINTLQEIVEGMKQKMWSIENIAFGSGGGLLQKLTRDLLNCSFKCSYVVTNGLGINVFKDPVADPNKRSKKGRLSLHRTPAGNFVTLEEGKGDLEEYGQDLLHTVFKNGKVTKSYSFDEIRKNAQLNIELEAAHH

Row | IC50 [µM] | SMILES
1 | < 0.05 | O=C(NCc1ccc(-c2nc3cc(C(F)(F)F)c(Cl)cc3o2)cc1)c1cnc2nccn2c1 [Example 41, N-[[4-[6-chloro-5-(trifluoromethyl)-1,3-benzoxazol-2-yl]phenyl]methyl]imidazo[1,2-a]pyrimidin-6-carboxamide]
2 | < 0.05 | O=C(NCc1ccc(-c2nc3cc(Cl)c(C(F)(F)F)cc3o2)cc1)c1cnc2nccn2c1 [Example 42, N-[[4-[5-chloro-6-(trifluoromethyl)-1,3-benzoxazol-2-yl]phenyl]methyl]imidazo[1,2-a]pyrimidin-6-carboxamide]
3 | < 0.05 | COc1cc2nc(-c3ccc(CNC(=O)c4cnc5nccn5c4)cc3)oc2cc1C [Example 43, N-[[4-(5-methoxy-6-methyl-1,3-benzoxazol-2-yl)phenyl]methyl]imidazo[1,2-a]pyrimidin-6-carboxamide]
4 | < 0.05 | CCc1ccc2oc(-c3ccc(CNC(=O)c4cnc5nccn5c4)cc3)nc2c1 [Example 44, N-[[4-(5-ethyl-1,3-benzoxazol-2-yl)phenyl]methyl]imidazo[1,2-a]pyrimidin-6-carboxamide]
5 | < 0.05 | CCc1ccc2nc(-c3ccc(CNC(=O)c4cnc5nccn5c4)cc3)oc2c1 [Example 45, N-[[4-(6-ethyl-1,3-benzoxazol-2-yl)phenyl]methyl]imidazo[1,2-a]pyrimidin-6-carboxamide]
6 | 0.051 to 0.1 | Nc1ccc2oc(-c3ccc(CNC(=O)c4cnc5nccn5c4)cc3)nc2c1 [Example 46, N-[[4-(5-amino-1,3-benzoxazol-2-yl)phenyl]methyl]imidazo[1,2-a]pyrimidin-6-carboxamide]
7 | < 0.05 | O=C(NCc1ccc(-c2nc3cc(Cl)ccc3s2)cc1)c1cnc2nccn2c1 [Example 49, N-[[4-(5-chloro-1,3-benzothiazol-2-yl)phenyl]methyl]imidazo[1,2-a]pyrimidin-6-carboxamide]
8 | 0.051 to 0.1 | O=C(NCc1ccc(-c2nc3ccc(Cl)cc3s2)cc1)c1cnc2nccn2c1 [Example 50, N-[[4-(6-chloro-1,3-benzothiazol-2-yl)phenyl]methyl]imidazo[1,2-a]pyrimidin-6-carboxamide]
9 | < 0.05 | COc1ccc2sc(-c3ccc(CNC(=O)c4cnc5nccn5c4)cc3)nc2c1 [Example 51, N-[[4-(5-methoxy-1,3-benzothiazol-2-yl)phenyl]methyl]imidazo[1,2-a]pyrimidin-6-carboxamide]
10 | < 0.05 | COc1ccc2nc(-c3ccc(CNC(=O)c4cnc5nccn5c4)cc3)sc2c1 [Example 52, N-[[4-(6-methoxy-1,3-benzothiazol-2-yl)phenyl]methyl]imidazo[1,2-a]pyrimidin-6-carboxamide]
11 | < 0.05 | O=C(NCc1ccc(-c2nc3cc(Oc4ccccc4)ccc3o2)cc1)c1cnc2nccn2c1 [Example 53, N-[[4-(5-phenoxy-1,3-benzoxazol-2-yl)phenyl]methyl]imidazo[1,2-a]pyrimidin-6-carboxamide]
12 | 0.051 to 0.1 | CCCOc1ccc2oc(-c3ccc(CNC(=O)c4cnc5nccn5c4)cc3)nc2c1 [Example 54, N-[[4-(5-propoxy-1,3-benzoxazol-2-yl)phenyl]methyl]imidazo[1,2-a]pyrimidin-6-carboxamide]
13 | > 1 | O=C(NCc1ccc(-c2nc3cc(OCc4ccccc4)ccc3o2)cc1)c1cnc2nccn2c1 [Example 55, N-[[4-(5-benzyloxy-1,3-benzoxazol-2-yl)phenyl]methyl]imidazo[1,2-a]pyrimidin-6-carboxamide]

More lines, now with the values behind:

Row | SMILES | IC50 [µM]
14 | Cc1ccc2nc(-c3ccc(CNC(=O)c4cnc5nccn5c4)cc3)oc2c1 [Example 1, N-[[4-(6-methyl-1,3-benzoxazol-2-yl)phenyl]methyl]imidazo[1,2-a]pyrimidin-6-carboxamide] | 0.051 to 0.1
15 | O=C(O)c1ccc2nc(-c3ccc(CNC(=O)c4cnc5nccn5c4)cc3)oc2c1 [Example 5, 2-[4-[(imidazo[1,2-a]pyrimidin-6-carbonylamino)methyl]phenyl]-1,3-benzoxazol-6-carboxylic acid] | 0.11 to 1
16 | COc1ccc2oc(-c3ccc(CNC(=O)c4cnc5nccn5c4)cc3)nc2c1 [Example 7, N-[[4-(5-methoxy-1,3-benzoxazol-2-yl)phenyl]methyl]imidazo[1,2-a]pyrimidin-6-carboxamide] | < 0.05
17 | Cc1ccc2nc(-c3ccc(CNC(=O)c4cnc5nccn5c4)cc3)sc2c1 [Example 8, N-[[4-(6-methyl-1,3-benzothiazol-2-yl)phenyl]methyl]imidazo[1,2-a]pyrimidin-6-carboxamide] | < 0.05
18 | CCS(=O)(=O)c1ccc2nc(-c3ccc(CNC(=O)c4cnc5nccn5c4)cc3)oc2c1 [Example 14, N-[[4-(6-ethylsulfonyl-1,3-benzoxazol-2-yl)phenyl]methyl]imidazo[1,2-a]pyrimidin-6-carboxamide] | < 0.05
19 | CCC(=O)Nc1ccc2oc(-c3ccc(CNC(=O)c4cnc5nccn5c4)cc3)nc2c1 [Example 15, N-[[4-[5-(propanoylamino)-1,3-benzoxazol-2-yl]phenyl]methyl]imidazo[1,2-a]pyrimidin-6-carboxamide] | 0.11 to 1
20 | O=C(NCc1ccc(-c2nc3cc(Cl)ccc3o2)cc1)c1cnc2nccn2c1 [Example 16, N-[[4-(5-chloro-1,3-benzoxazol-2-yl)phenyl]methyl]imidazo[1,2-a]pyrimidin-6-carboxamide] | < 0.05
21 | O=C(NCc1ccc(-c2nc3cc(F)ccc3o2)cc1)c1cnc2nccn2c1 [Example 18, N-[[4-(5-fluoro-1,3-benzoxazol-2-yl)phenyl]methyl]imidazo[1,2-a]pyrimidin-6-carboxamide] | 0.11 to 1
22 | Cc1cccc2oc(-c3ccc(CNC(=O)c4cnc5nccn5c4)cc3)nc12 [Example 20, N-[[4-(4-methyl-1,3-benzoxazol-2-yl)phenyl]methyl]imidazo[1,2-a]pyrimidin-6-carboxamide] | 0.11 to 1
23 | Cc1cccc2nc(-c3ccc(CNC(=O)c4cnc5nccn5c4)cc3)oc12 [Example 21, N-[[4-(7-methyl-1,3-benzoxazol-2-yl)phenyl]methyl]imidazo[1,2-a]pyrimidin-6-carboxamide] | 0.11 to 1
24 | O=C(NCc1ccc(-c2nc3cc(O)ccc3o2)cc1)c1cnc2nccn2c1 [Example 23, N-[[4-(5-hydroxy-1,3-benzoxazol-2-yl)phenyl]methyl]imidazo[1,2-a]pyrimidin-6-carboxamide] | < 0.05
25 | Cc1ccc2nc(-c3ccc(CNC(=O)c4cnc5nccn5c4)cc3)oc2n1 [Example 24, N-[[4-(5-methyloxazolo[5,4-b]pyridin-2-yl)phenyl]methyl]imidazo[1,2-a]pyrimidin-6-carboxamide] | < 0.05
26 | O=C(NCc1ccc(-c2nc3cc(Oc4ccccn4)ccc3o2)cc1)c1cnc2nccn2c1 [Example 25, N-[[4-[5-(2-pyridyloxy)-1,3-benzoxazol-2-yl]phenyl]methyl]imidazo[1,2-a]pyrimidin-6-carboxamide] | < 0.05
27 | Nc1ccc2nc(-c3ccc(CNC(=O)c4cnc5nccn5c4)cc3)oc2c1 [Example 26, N-[[4-(6-amino-1,3-benzoxazol-2-yl)phenyl]methyl]imidazo[1,2-a]pyrimidin-6-carboxamide] | 0.051 to 0.1
28 | O=C(NCc1ccc(-c2nc3cc(-c4cccnc4)ccc3o2)cc1)c1cnc2nccn2c1 [Example 27, N-[[4-[5-(3-pyridyl)-1,3-benzoxazol-2-yl]phenyl]methyl]imidazo[1,2-a]pyrimidin-6-carboxamide] | 0.051 to 0.1
29 | Cc1ccc2nc(-c3ccc(CNC(=O)c4cnc5nccn5c4)nc3)oc2c1 [Example 28, N-[[5-(6-methyl-1,3-benzoxazol-2-yl)-2-pyridyl]methyl]imidazo[1,2-a]pyrimidin-6-carboxamide] | 0.11 to 1
30 | CCOC(=O)c1ccc2oc(-c3ccc(CNC(=O)c4cnc5nccn5c4)cc3)nc2c1 [Example 29, ethyl 2-[4-[(imidazo[1,2-a]pyrimidin-6-carbonylamino)methyl]phenyl]-1,3-benzoxazol-5-carboxylate] | < 0.05
31 | O=C(NCc1ccc(-c2nc3cc(CO)ccc3o2)cc1)c1cnc2nccn2c1 [Example 30, N-[[4-[5-(hydroxymethyl)-1,3-benzoxazol-2-yl]phenyl]methyl]imidazo[1,2-a]pyrimidin-6-carboxamide] | < 0.05
32 | Cc1ccc2nc(-c3ccc(CNC(=O)c4cnc5nccn5c4)c(F)c3)oc2c1 [Example 35, N-[[2-fluoro-4-(6-methyl-1,3-benzoxazol-2-yl)phenyl]methyl]imidazo[1,2-a]pyrimidin-6-carboxamide] | < 0.05
33 | O=C(NCc1ccc(-c2nc3cnccc3o2)cc1)c1cnc2nccn2c1 [Example 36, N-[(4-oxazolo[4,5-c]pyridin-2-ylphenyl)methyl]imidazo[1,2-a]pyrimidin-6-carboxamide] | 0.11 to 1
34 | CCS(=O)(=O)c1ccc2oc(-c3ccc(CNC(=O)c4cnc5nccn5c4)cc3)nc2c1 [Example 37, N-[[4-(5-ethylsulfonyl-1,3-benzoxazol-2-yl)phenyl]methyl]imidazo[1,2-a]pyrimidin-6-carboxamide] | 0.11 to 1
35 | O=C(NCc1ccc(-c2nc3cc(F)c(F)cc3o2)cc1)c1cnc2nccn2c1 [Example 39, N-[[4-(5,6-difluoro-1,3-benzoxazol-2-yl)phenyl]methyl]imidazo[1,2-a]pyrimidin-6-carboxamide] | < 0.05
36 | O=C(NCc1ccc(-c2nc3c(F)cc(F)cc3o2)cc1)c1cnc2nccn2c1 [Example 40, N-[[4-(4,6-difluoro-1,3-benzoxazol-2-yl)phenyl]methyl]imidazo[1,2-a]pyrimidin-6-carboxamide] | < 0.05
